From ChEMBL document CHEMBL1743141, “Membrane transporters in drug development” (Nat Rev Drug Discov, 2010)

Experiments:
Type in all cases: ADME
[1] = biological target: T1, Solute carrier organic anion transporter family member 1B1 (Homo sapiens, UniProt Q9Y6L6); assay: Substrates of transporters of clinical importance in the absorption and disposition of drugs, OATP1B1
T1 sequence (Q9Y6L6 whole entry): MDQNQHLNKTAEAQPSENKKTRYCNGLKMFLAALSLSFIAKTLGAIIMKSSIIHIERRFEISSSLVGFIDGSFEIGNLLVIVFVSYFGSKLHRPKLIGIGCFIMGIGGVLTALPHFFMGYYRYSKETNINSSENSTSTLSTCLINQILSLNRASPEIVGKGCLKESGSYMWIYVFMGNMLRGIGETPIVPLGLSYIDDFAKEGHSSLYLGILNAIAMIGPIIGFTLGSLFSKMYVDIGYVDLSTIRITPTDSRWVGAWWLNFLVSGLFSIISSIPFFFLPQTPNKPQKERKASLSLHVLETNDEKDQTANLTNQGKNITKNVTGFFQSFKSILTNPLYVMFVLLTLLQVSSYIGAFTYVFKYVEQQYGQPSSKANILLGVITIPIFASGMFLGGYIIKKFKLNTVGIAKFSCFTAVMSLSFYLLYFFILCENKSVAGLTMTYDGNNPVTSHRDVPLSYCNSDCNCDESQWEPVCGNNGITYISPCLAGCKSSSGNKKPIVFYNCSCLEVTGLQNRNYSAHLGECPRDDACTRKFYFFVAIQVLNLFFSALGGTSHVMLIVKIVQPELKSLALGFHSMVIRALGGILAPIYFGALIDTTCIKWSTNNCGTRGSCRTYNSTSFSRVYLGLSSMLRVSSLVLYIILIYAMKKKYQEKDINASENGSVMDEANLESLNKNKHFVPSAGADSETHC

[2] = biological target: T2, Solute carrier organic anion transporter family member 1B3 (Homo sapiens, UniProt Q9NPD5); assay: Substrates of transporters of clinical importance in the absorption and disposition of drugs, OATP1B3
T2 sequence (Q9NPD5 whole entry): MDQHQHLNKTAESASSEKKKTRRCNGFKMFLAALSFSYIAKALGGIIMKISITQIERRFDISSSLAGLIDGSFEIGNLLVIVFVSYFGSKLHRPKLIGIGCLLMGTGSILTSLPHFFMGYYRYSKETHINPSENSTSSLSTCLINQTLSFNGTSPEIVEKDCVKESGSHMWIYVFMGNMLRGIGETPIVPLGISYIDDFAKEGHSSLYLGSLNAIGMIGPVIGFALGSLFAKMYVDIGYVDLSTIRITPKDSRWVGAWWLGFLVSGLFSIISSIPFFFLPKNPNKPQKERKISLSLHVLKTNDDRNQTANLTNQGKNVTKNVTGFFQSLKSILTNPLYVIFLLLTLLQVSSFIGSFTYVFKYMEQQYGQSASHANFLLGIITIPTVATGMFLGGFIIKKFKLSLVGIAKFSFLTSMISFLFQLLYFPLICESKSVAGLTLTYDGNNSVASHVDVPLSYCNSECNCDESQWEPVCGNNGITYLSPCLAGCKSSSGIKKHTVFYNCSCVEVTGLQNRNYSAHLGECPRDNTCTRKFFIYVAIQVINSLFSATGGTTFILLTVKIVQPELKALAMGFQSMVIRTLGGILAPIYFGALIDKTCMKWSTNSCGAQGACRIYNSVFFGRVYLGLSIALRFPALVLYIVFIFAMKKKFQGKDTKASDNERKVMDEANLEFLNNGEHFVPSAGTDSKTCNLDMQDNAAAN

[3] = biological target: ATP-binding cassette sub-family C member 2 (Homo sapiens, UniProt Q92887); assay: Substrates of transporters of clinical importance in the absorption and disposition of drugs, MRP2
Chain of ATP-binding cassette sub-family C member 2 (Q92887 whole entry): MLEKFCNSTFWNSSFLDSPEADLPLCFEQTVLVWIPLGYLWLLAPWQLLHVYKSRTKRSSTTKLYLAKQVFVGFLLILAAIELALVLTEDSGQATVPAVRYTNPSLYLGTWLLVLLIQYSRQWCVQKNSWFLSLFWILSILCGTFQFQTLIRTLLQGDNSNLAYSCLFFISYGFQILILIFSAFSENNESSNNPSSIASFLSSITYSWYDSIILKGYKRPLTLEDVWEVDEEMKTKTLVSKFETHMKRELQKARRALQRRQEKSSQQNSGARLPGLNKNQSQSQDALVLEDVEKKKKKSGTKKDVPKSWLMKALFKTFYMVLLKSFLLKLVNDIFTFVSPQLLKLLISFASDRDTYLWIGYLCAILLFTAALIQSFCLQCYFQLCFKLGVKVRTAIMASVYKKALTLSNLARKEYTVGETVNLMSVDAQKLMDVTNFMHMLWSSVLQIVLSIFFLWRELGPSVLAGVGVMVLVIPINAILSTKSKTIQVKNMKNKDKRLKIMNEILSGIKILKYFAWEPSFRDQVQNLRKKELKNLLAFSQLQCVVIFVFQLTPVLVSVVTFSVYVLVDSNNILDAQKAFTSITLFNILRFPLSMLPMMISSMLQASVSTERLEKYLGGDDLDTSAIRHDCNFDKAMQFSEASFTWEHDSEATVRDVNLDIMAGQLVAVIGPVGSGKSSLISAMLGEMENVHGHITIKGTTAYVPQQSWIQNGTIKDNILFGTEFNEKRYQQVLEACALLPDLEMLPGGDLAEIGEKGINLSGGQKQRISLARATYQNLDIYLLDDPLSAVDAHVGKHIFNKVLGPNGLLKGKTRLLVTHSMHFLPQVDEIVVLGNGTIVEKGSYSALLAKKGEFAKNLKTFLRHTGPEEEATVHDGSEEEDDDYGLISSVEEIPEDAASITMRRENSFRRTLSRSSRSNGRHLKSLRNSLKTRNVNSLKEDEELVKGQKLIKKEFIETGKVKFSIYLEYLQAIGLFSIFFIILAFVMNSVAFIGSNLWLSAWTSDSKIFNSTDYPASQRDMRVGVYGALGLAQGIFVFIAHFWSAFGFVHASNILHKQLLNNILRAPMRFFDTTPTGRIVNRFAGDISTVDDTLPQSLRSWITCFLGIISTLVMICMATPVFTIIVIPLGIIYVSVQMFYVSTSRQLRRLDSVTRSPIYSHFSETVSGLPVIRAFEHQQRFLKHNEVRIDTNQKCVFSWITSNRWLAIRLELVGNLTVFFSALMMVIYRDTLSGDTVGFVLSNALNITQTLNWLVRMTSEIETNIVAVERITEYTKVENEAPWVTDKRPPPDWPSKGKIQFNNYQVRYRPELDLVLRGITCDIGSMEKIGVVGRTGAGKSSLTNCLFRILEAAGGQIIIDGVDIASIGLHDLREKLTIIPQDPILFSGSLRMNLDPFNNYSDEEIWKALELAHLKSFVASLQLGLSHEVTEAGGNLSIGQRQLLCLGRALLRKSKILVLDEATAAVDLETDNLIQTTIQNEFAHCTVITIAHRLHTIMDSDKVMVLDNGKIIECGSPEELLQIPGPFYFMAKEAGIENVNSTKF

[4] = biological target: ATP-dependent translocase ABCB1 (Homo sapiens, UniProt P08183); assay: Substrates of transporters of clinical importance in the absorption and disposition of drugs, MDR1
Chain of ATP-dependent translocase ABCB1 (P08183 whole entry): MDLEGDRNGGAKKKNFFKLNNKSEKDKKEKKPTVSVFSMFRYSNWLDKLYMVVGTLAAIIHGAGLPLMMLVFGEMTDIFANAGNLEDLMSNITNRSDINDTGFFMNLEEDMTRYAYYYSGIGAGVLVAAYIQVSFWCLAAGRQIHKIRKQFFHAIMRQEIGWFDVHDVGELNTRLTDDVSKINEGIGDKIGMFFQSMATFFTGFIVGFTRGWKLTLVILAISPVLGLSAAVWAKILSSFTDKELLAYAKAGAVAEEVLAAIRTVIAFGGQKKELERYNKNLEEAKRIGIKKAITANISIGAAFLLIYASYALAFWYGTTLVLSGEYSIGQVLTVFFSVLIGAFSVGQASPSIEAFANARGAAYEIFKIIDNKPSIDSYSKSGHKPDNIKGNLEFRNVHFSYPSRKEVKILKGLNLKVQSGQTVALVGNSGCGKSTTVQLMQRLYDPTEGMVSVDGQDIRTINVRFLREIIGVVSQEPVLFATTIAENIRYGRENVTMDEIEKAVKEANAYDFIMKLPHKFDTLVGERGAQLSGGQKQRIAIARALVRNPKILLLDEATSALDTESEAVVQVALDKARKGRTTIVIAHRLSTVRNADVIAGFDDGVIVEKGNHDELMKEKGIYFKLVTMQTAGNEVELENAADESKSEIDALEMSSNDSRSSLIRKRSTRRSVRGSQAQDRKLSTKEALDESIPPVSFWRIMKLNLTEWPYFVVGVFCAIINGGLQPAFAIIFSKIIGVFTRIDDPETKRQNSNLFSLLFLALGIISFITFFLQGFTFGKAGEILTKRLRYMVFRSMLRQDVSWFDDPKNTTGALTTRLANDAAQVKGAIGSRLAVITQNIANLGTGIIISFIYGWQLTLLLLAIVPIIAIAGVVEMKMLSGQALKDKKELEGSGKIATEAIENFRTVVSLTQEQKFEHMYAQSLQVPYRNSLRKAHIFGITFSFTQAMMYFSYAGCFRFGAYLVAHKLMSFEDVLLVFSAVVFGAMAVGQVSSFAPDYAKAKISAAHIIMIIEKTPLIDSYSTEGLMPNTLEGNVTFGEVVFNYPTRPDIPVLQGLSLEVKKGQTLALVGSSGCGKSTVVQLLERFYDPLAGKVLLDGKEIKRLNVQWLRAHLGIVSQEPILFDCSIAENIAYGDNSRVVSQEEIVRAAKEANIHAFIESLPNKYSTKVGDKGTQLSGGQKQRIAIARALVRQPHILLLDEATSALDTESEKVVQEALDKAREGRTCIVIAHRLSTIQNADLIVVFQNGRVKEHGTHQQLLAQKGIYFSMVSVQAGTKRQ

[5] = biological target: T3, Solute carrier organic anion transporter family member 1A2 (Homo sapiens, UniProt P46721); assay: Substrates of transporters of clinical importance in the absorption and disposition of drugs, OATP1A2
T3 sequence (P46721 whole entry): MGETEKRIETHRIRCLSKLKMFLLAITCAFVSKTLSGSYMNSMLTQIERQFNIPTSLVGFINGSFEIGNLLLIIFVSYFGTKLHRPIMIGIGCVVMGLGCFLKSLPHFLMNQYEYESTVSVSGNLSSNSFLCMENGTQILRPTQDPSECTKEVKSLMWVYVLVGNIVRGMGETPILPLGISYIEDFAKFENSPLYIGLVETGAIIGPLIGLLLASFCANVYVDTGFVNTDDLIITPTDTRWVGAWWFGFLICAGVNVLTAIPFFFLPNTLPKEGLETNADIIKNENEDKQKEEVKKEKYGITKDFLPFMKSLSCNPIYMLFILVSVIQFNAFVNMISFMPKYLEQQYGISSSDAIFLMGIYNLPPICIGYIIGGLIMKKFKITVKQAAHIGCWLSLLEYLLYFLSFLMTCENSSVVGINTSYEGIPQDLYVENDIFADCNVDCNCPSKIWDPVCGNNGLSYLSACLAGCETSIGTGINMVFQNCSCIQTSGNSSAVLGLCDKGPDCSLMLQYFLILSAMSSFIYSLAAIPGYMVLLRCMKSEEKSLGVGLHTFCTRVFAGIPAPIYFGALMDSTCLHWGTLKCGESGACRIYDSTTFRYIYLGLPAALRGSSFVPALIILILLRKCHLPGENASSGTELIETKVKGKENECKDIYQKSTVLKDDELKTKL

[6] = biological target: T4, ATP-binding cassette sub-family C member 4 (Homo sapiens, UniProt O15439); assay: Substrates of transporters of clinical importance in the absorption and disposition of drugs, MRP4
T4 sequence (O15439 whole entry): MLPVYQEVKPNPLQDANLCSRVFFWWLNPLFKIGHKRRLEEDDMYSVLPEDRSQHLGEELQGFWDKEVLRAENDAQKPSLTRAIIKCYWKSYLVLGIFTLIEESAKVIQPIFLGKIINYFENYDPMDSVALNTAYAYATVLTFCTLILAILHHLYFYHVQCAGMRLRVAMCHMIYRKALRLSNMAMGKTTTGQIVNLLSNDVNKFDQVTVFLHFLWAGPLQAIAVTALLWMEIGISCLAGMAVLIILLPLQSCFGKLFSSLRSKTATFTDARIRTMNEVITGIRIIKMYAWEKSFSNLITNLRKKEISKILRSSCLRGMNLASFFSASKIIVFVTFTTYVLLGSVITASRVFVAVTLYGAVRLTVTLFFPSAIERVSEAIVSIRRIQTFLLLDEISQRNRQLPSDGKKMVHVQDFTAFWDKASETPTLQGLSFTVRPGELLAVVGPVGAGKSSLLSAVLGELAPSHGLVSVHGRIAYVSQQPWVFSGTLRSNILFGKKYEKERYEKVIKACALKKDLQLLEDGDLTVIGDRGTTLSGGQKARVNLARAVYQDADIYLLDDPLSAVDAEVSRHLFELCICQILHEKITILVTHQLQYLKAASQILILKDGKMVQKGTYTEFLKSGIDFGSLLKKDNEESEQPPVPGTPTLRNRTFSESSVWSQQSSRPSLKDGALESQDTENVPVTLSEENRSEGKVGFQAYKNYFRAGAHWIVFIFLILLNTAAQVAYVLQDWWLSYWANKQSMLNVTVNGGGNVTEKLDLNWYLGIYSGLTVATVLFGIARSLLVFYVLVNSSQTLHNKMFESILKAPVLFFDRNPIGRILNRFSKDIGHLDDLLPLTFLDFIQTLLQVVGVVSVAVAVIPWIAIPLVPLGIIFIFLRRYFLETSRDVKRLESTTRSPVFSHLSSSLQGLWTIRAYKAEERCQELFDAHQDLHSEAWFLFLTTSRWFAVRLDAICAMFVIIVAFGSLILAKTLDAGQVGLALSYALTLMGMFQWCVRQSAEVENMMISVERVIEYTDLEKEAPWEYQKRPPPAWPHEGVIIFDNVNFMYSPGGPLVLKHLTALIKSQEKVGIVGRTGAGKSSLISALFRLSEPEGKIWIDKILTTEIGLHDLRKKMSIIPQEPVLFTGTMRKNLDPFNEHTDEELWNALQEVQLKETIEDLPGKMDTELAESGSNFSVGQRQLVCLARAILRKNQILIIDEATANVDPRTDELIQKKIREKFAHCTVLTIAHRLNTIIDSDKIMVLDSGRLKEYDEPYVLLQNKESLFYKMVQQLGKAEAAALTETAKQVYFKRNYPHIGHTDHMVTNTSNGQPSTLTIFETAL

[7] = biological target: T5, Solute carrier family 15 member 1 (Homo sapiens, UniProt P46059); assay: Substrates of transporters of clinical importance in the absorption and disposition of drugs, PEPT1
T5 sequence (P46059 whole entry): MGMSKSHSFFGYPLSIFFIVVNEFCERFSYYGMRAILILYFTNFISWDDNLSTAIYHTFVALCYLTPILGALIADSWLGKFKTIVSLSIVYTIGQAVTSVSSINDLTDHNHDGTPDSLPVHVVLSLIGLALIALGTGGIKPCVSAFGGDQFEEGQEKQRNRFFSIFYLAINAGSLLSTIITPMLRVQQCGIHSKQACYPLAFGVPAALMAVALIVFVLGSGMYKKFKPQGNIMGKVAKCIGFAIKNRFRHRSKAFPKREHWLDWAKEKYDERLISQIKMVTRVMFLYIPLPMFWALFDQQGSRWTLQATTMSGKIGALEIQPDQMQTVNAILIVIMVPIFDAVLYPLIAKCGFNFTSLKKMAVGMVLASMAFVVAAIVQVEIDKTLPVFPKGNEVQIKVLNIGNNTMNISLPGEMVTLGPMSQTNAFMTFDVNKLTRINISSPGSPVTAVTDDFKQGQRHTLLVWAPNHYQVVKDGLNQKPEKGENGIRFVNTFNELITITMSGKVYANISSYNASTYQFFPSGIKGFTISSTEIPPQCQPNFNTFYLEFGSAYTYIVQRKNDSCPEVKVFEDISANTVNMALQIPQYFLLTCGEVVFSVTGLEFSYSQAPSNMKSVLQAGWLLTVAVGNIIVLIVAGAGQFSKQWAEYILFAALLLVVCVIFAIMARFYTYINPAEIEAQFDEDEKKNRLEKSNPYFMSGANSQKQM

[8] = biological target: T6, Solute carrier family 15 member 2 (Homo sapiens, UniProt Q16348); assay: Substrates of transporters of clinical importance in the absorption and disposition of drugs, PEPT2
T6 sequence (Q16348 whole entry): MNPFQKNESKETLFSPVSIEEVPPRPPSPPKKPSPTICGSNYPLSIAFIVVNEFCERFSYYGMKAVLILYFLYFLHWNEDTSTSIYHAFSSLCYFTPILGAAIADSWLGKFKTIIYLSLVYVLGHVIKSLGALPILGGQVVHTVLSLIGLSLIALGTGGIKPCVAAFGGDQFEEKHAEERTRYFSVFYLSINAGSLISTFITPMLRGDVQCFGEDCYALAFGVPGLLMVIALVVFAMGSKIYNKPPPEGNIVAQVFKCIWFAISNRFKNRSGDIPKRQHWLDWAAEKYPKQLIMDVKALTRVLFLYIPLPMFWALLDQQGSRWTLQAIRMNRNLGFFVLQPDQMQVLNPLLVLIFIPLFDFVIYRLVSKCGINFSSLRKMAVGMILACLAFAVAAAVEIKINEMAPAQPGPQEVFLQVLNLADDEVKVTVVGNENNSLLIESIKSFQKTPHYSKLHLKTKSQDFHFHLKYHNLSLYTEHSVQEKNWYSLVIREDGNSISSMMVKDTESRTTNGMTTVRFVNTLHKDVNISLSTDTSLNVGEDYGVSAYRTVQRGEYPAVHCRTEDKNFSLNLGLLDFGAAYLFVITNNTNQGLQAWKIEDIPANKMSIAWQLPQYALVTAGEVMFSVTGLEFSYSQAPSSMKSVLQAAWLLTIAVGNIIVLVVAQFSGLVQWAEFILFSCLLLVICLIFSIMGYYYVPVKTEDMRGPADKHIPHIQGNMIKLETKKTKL

With `CCCc1nc(C(C)(C)O)c(C(=O)O)n1Cc1ccc(-c2ccccc2-c2nnn[nH]2)cc1` [OLMESARTAN] the Activity [1] was “transporter substrate”, the Activity [2] was “transporter substrate” and the Activity [3] was “transporter substrate”.
For `CN(C)C(=O)C(CCN1CCC(O)(c2ccc(Cl)cc2)CC1)(c1ccccc1)c1ccccc1` [LOPERAMIDE], the Activity [4] was “transporter substrate”.
For `CCc1c2c(nc3ccc(OC[C@@H]4O[C@H](C(=O)O)[C@@H](O)[C@H](O)[C@H]4O)cc13)-c1cc3c(c(=O)n1C2)COC(=O)[C@]3(O)CC`, the Activity [3] was “transporter substrate”.
For `COc1ccc2cc3[n+](cc2c1OC)CCc1cc2c(cc1-3)OCO2.[Cl-]` [BERBERINE CHLORIDE], the Activity [4] was “transporter substrate”.
With `C[C@]12CC[C@H](OS(=O)(=O)O)CC1=CC[C@@H]1[C@@H]2CC[C@]2(C)C(=O)CC[C@@H]12` [PRASTERONE SULFURIC ACID] the Activity [5] was “transporter substrate” and the Activity [6] was “transporter substrate”.
In the case of `COc1cccc2c1C(=O)c1c(O)c3c(c(O)c1C2=O)C[C@@](O)(C(=O)CO)C[C@@H]3O[C@H]1C[C@H](N)[C@H](O)[C@H](C)O1` [DOXORUBICIN], the Activity [4] is reported as “transporter substrate”.
With `Nc1nc2c(ncn2[C@@H]2O[C@@H]3COP(=O)(O)O[C@H]3[C@H]2O)c(=O)[nH]1` the Activity [6] was “transporter substrate”.
With `CCCCC(=O)N(Cc1ccc(-c2ccccc2-c2nnn[nH]2)cc1)[C@H](C(=O)O)C(C)C` the Activity [1] was “transporter substrate”, the Activity [2] was “transporter substrate” and the Activity [3] was “transporter substrate”.
For `COc1cc([C@@H]2c3cc4c(cc3[C@@H](O[C@@H]3O[C@@H]5CO[C@@H](C)O[C@H]5[C@H](O)[C@H]3O)[C@H]3COC(=O)[C@H]23)OCO4)cc(OC)c1O` [ETOPOSIDE], the Activity [3] was “transporter substrate”.
In the case of `CC1=C(C(=O)O)N2C(=O)[C@@H](NC(=O)[C@H](N)c3ccc(O)cc3)[C@H]2SC1` [CEFADROXIL], the Activity [7] is reported as “transporter substrate” and the Activity [8] is reported as “transporter substrate”.
